The values below are quoted from earlier work in paper PMC7984154 (Chemmedchem, 2020).

The conditions of data set [1]: steady state, oral dose of 5 mg.
The subject of the next data set is FAP. To be noted: cancer indications, also in combination with other chemotherapies.

Turning to `CC#CCn1c(N2CCC[C@@H](N)C2)nc2c1c(=O)n(Cc1nc(C)c3ccccc3n1)c(=O)n2C` [linagliptin], the “clinical maximum plasma concentration” value in data set [1] is 12 nM. For the setting “single dose 600 mg”, the maximal plasma concentrations is about 4 µM. The highest tolerable dose (single rising dose studies) was 600 mg.

As for `CC(C)[C@H](N)C(=O)N1CCC[C@H]1B(O)O` [PT100, talabostat], in the data set with FAP, the “efficacy in the clinical setting” value was “minimal efficacy”.
